From patent US6534676B2, “Method to treat chronic heart failure and/or elevated cholesterol levels using 3,5-diiodothyropropionic acid and method to prepare same” (The Arizona Board of Regents on Behalf of the University of …, priority 2001, dated 2003)

Key:
[1] = Dose-ranging study of DITPA in normal volunteers: thyroid hormone measurements; type: in vivo, human; settings: for Thyrotropin: baseline 3.53 ± 1.00; for Thyrotropin / Free T4 / Total T4 / rT3: mean ± SEM; for Free T4: baseline 1.04 ± .04; for Total T4: baseline 8.73 ± .85; for rT3: baseline 23.23 ± 1.71
Method: A dose-ranging study was performed with seven (7) normal volunteers. Study participants comprised men between the ages of 18 and 65 years of age. Before participating in the study, a complete physical examination, electrocardiogram, and echocardiogram were obtained. […] On day 1, these normal volunteers were started on 1.875 mg/kg in two divided doses per day. This treatment regimen was continued for two weeks. At the end of the second week, the initial laboratory studies were repeated. The dose was then doubled to 3.75 mg/kg and the volunteers were treated for two additional weeks. At the end of this time physical examination and all laboratory variables again were measured. Volunteer data were analyzed using Student's paired t-test. Baseline data in DITPA and placebo groups were compared by Student's unpaired t-test. Comparison of placebo and drug treated groups was made by repeated measures ANOVA (SPSS Version 9.5, SPSS Chicago, 11). If P values for drug-time interactions were significant a priori contrasts were performed of the drug-time interaction for two weeks versus baseline. When data were available only at baseline and four week, comparisons were made by difference scores. Baseline values for each participant were subtracted from values after four weeks of treatment and the differences between DITPA and placebo treatments then were compared. […] Table II summarizes thyroid hormone measurements after two and four weeks of treatment with DITPA in normal volunteers.

[2] = system: nuclear T3 receptors of the c-erbA proto-oncogene family; settings: background statement; cited from earlier work
[3] = normal primates; cited from earlier work
[4] = post-infarction rats, border zone around the infarct; cited from earlier work
[5] = Dose-ranging study of DITPA in normal volunteers: clinical variables and tolerability; type: in vivo, human; settings: for Weight: normal volunteers n=7, oral, baseline 84.2 ± 2.6; for Weight / Heart Rate / Diastolic Blood Pressure / Systolic Blood Pressure: mean ± SE; for Heart Rate: baseline 55.4 ± 2.9; for Diastolic Blood Pressure: baseline 77.1 ± 3.5; for Systolic Blood Pressure: baseline 121.3 ± 4.4
Method: In clinical trials discussed below wherein DITPA was orally administered to volunteers and patients, the DITPA was mixed under the supervision of a registered pharmacist with lactose and packed into gelatin capsules containing 50 mg of the active ingredient. Identical capsules were packed with lactose to serve as placebo medication.
A dose-ranging study was performed with seven (7) normal volunteers. Study participants comprised men between the ages of 18 and 65 years of age. Before participating in the study, a complete physical examination, electrocardiogram, and echocardiogram were obtained. A complete blood count (CBC), blood chemistries (including liver enzymes and lipids profile), and thyroid function studies (total T3, total T4, free T4, rT3, and thyrotropin) were measured.
On day 1, these normal volunteers were started on 1.875 mg/kg in two divided doses per day. This treatment regimen was continued for two weeks. At the end of the second week, the initial laboratory studies were repeated. The dose was then doubled to 3.75 mg/kg and the volunteers were treated for two additional weeks. At the end of this time physical examination and all laboratory variables again were measured.
Volunteer data were analyzed using Student's paired t-test. Baseline data in DITPA and placebo groups were compared by Student's unpaired t-test. Comparison of placebo and drug treated groups was made by repeated measures ANOVA (SPSS Version 9.5, SPSS Chicago, 11). If P values for drug-time interactions were significant a priori contrasts were performed of the drug-time interaction for two weeks versus baseline. When data were available only at baseline and four week, comparisons were made by difference scores. Baseline values for each participant were subtracted from values after four weeks of treatment and the differences between DITPA and placebo treatments then were compared. P values by two-tailed testing less than 0.05 were considered to be significant.
As noted above, seven normal volunteers received DITPA at two dosage levels for two and four weeks.

[6] = post-infarction models, alone or with an angiotensin I-converting enzyme inhibitor; cited from earlier work
[7] = Heart failure patients: serum lipid levels; type: in vivo, human; settings: for LDL-cholesterol: text baseline 107.3±42.8 mg/dL; for HDL Cholesterol / Triglyceride: serum; for HDL Cholesterol: baseline 32.8 ± 2.8; for Triglyceride: baseline 248.7 ± 40.4
Method: DITPA cross-reacted with antibodies for detection of T3, which consequently was not measured. Renal and hepatic function tests also were performed. Patients were randomly assigned in double-blind fashion to receive either DITPA at a dosage of 1.875 mg/kg daily or placebo in two or three divided doses. For the first four days of drug administration patients were monitored on a telemetry unit. Thereafter, weekly electrocardiograms were performed and patients were examined for changes in thyroid or cardiac status or evidence of drug toxicity. At the end of two weeks an echocardiogram was obtained. If there was no clinical evidence of progression of heart failure or development of an arrhythmia the dose of DITPA was increased to 3.75 mg/kg daily. After an additional two weeks of treatment with the higher dosage of the drug patients were readmitted to the hospital and the tests performed in the initial evaluation were repeated. Right heart catheterization was performed after the patient had been fasted overnight; no premedication was given. Pulmonary artery, pulmonary capillary wedge and right heart pressures were measured with a 7 Fr Swan-Ganz catheter introduced into the right femoral vein. Blood pressures were recorded with an automated arm cuff system. After an initial stabilization period of 20 to 30 minutes, the resting hemodynamic measurements were obtained. Thermodilution cardiac output measurements were averaged from five recordings after discarding the highest and lowest values. All blood tests were performed in the Clinical Pathology Laboratory at the Southern Arizona Veterans Administration Health Care System.

[8] = normal volunteers, after 2 weeks (1.875 mg/kg/day)
[9] = normal volunteers, after 4 weeks (3.75 mg/kg/day)
[10] = heart failure patients, after four weeks
[11] = heart failure patients, after two weeks
[12] = after 2 weeks (1.875 mg/kg daily)
[13] = after 4 weeks (3.75 mg/kg daily)

O=C(O)CCc1cc(I)c(Oc2ccc(O)cc2)c(I)c1 [DITPA, 3,5-Diiodothyropropionic acid]
Thyrotropin ([1]; normal volunteers n=7, after 2 weeks (1.875 mg/kg/day)): 0.69 ± .38 mu/L
Thyrotropin ([1]; normal volunteers n=7, after 4 weeks (3.75 mg/kg/day)): 0.44 ± .29 mu/L
Free T4 [1, 8]: 0.95 ± .07 ng/dL
Total T4 [1, 8]: 5.76 ± .39 µg/dL
rT3 [1, 8]: 47.41 ± 7.11 ng/dL
Free T4 [1, 9]: 1.05 ± .06 ng/dL
Total T4 [1, 9]: 5.89 ± .44 µg/dL
rT3 [1, 9]: 69.56 ± 9.93 ng/dL
average values for thyrotropin ([1]; normal volunteers, after two additional weeks at 3.75 mg/kg, normal range 0.48 to 4.0 μU/ml): 0.44±0.29 μU/ml
binding to nuclear T3 receptors [2]: binds
in vivo force-frequency and relaxation-frequency relationships [3]: enhances the in vivo force-frequency and relaxation-frequency relationships
capillary growth [4]: increase in capillary growth
echocardiographic parameters ([5]; normal volunteers): not changed significantly
Weight ([5]; after 2 weeks (1.875 mg/kg/day)): 83.5 ± 2.6 kg
Weight ([5]; after 4 weeks (last 2 weeks 3.75 mg/kg/day)): 83.6 ± 2.6 kg
adverse effects ([5]; normal volunteers, 1.875 then 3.75 mg/kg, four weeks): no adverse effects were noted
Heart Rate [5, 8]: 58.1 ± 3.2 beats/min
Diastolic Blood Pressure [5, 8]: 76.1 ± 2.9 mm Hg
Systolic Blood Pressure [5, 8]: 122.0 ± 5.4 mm Hg
Heart Rate [5, 9]: 64.3 ± 3.4 beats/min
Diastolic Blood Pressure [5, 9]: 71.6 ± 3.8 mm Hg
Systolic Blood Pressure [5, 9]: 116.3 ± 6.1 mm Hg
changes in blood pressure and pulse rate ([5]; normal volunteers, at either dose): no significant changes
tolerability ([5]; normal volunteers, both doses): well tolerated
left ventricular (LV) performance [6]: improve left ventricular (LV) performance
cholesterol ([7]; heart failure patients n=9, serum, after 2 weeks (1.875 mg/kg daily), baseline 198.9 ± 19.7): 160.6 ± 14.3^++ ng/dL
LDL-cholesterol ([7]; heart failure patients, after 4 weeks): 80.5 ± 13.7 mg/dL
decrease in LDL-cholesterol [7, 10]: 25%
decrease in cholesterol [7, 10]: 24%
decrease in serum triglycerides ([7]; heart failure patients, after four weeks, P=0.005): 35%
cholesterol ([7]; heart failure patients, after four weeks, text baseline 185.8±46.9 mg/dL, P=0.013): 140.7 ± 16.2 mg/dL
average decrease in LDL-cholesterol [7, 11]: 17%
average decrease in cholesterol [7, 11]: 14%
decrease in serum triglycerides ([7]; heart failure patients, after two weeks, P<0.05): 11%
cholesterol ([7]; heart failure patients, after two weeks, text baseline 185.8±46.9 mg/dL, P<0.05): 160.6 ± 14.3 mg/dL
LDL-cholesterol ([7]; heart failure patients, at two weeks): 89.4 ± 12.7 mg/dL
HDL Cholesterol [7, 12]: 30.6 ± 2.0 mg/dL
Triglyceride [7, 12]: 203.0 ± 30.4^++ mg/dL
HDL Cholesterol [7, 13]: 31.4 ± 3.1 mg/dL
Triglyceride [7, 13]: 143.7 ± 21.1 mg/dL
patients in whom LDL-cholesterol decreased ([7]; treated for 4 weeks): 8 of 9
